Data reported in publication PMC8414988 (Pediatric blood & cancer, 2021).

Experiment: Adverse events graded by NCI CTCAE v4.0, all reported regardless of attribution
Type: in vivo, human

Compound: CC(=O)c1c(C)c2cnc(Nc3ccc(N4CCNCC4)cn3)nc2n(C2CCCC2)c1=O [palbociclib]
- most common toxicity (Stratum I and II): myelosuppression
- Alanine aminotransferase increased, episodes (Stratum I, grade 1): 4(4)
- Alanine aminotransferase increased, patients (Stratum I, grade 1): 4(4)
- Anemia, episodes (Stratum I, grade 1): 7
- Anemia, patients (Stratum I, grade 1): 5
- Ataxia, episodes (Stratum I, grade 1): 1(1)
- Ataxia, patients (Stratum I, grade 1): 1(1)
- Constipation, episodes (Stratum I, grade 1): 8
- Constipation, patients (Stratum I, grade 1): 6
- Diarrhea, episodes (Stratum I, grade 1): 4
- Diarrhea, patients (Stratum I, grade 1): 3
- Dry skin, episodes (Stratum I, grade 1): 3(3)
- Dry skin, patients (Stratum I, grade 1): 3(3)
- Fatigue, episodes (Stratum I, grade 1): 7(7)
- Fatigue, patients (Stratum I, grade 1): 7(7)
- Headache, episodes (Stratum I, grade 1): 4
- Headache, patients (Stratum I, grade 1): 3
- Hypokalemia, episodes (Stratum I, grade 1): 5
- Hypokalemia, patients (Stratum I, grade 1): 4
- Lymphocyte count decreased, episodes (Stratum I, grade 1): 22
- Lymphocyte count decreased, patients (Stratum I, grade 1): 8
- Mucositis oral, episodes (Stratum I, grade 1): 5
- Mucositis oral, patients (Stratum I, grade 1): 2
- Nausea, episodes (Stratum I, grade 1): 4
- Nausea, patients (Stratum I, grade 1): 3
- Neutrophil count decreased, episodes (Stratum I, grade 1): 8
- Neutrophil count decreased, patients (Stratum I, grade 1): 5
- Platelet count decreased, episodes (Stratum I, grade 1): 28
- Platelet count decreased, patients (Stratum I, grade 1): 10
- Vomiting, episodes (Stratum I, grade 1): 5
- Vomiting, patients (Stratum I, grade 1): 4
- White blood cell decreased, episodes (Stratum I, grade 1): 14
- White blood cell decreased, patients (Stratum I, grade 1): 9
- Anemia, episodes (Stratum I, grade 2): 2(2)
- Anemia, patients (Stratum I, grade 2): 2(2)
- Ataxia, episodes (Stratum I, grade 2): 3(3)
- Ataxia, patients (Stratum I, grade 2): 3(3)
- Fatigue, episodes (Stratum I, grade 2): 3(3)
- Fatigue, patients (Stratum I, grade 2): 3(3)
- Gait disturbance, episodes (Stratum I, grade 2): 2(2)
- Gait disturbance, patients (Stratum I, grade 2): 2(2)
- Headache, episodes (Stratum I, grade 2): 3
- Headache, patients (Stratum I, grade 2): 2
- Hypokalemia, episodes (Stratum I, grade 2): 1(1)
- Hypokalemia, patients (Stratum I, grade 2): 1(1)
- Lymphocyte count decreased, episodes (Stratum I, grade 2): 17
- Lymphocyte count decreased, patients (Stratum I, grade 2): 4
- Mucositis oral, episodes (Stratum I, grade 2): 5
- Mucositis oral, patients (Stratum I, grade 2): 2
- Nausea, episodes (Stratum I, grade 2): 1(1)
- Nausea, patients (Stratum I, grade 2): 1(1)
- Neutrophil count decreased, episodes (Stratum I, grade 2): 26
- Neutrophil count decreased, patients (Stratum I, grade 2): 7
- Vomiting, episodes (Stratum I, grade 2): 1(1)
- Vomiting, patients (Stratum I, grade 2): 1(1)
- White blood cell decreased, episodes (Stratum I, grade 2): 37
- White blood cell decreased, patients (Stratum I, grade 2): 14
- Ataxia, episodes (Stratum I, grade 3): 1(1)
- Ataxia, patients (Stratum I, grade 3): 1(1)
- Gait disturbance, episodes (Stratum I, grade 3): 1(1)
- Gait disturbance, patients (Stratum I, grade 3): 1(1)
- Lymphocyte count decreased, episodes (Stratum I, grade 3): 12
- Lymphocyte count decreased, patients (Stratum I, grade 3): 7
- Muscle weakness left-sided, episodes (Stratum I, grade 3): 3(3)
- Muscle weakness left-sided, patients (Stratum I, grade 3): 3(3)
- Nausea, episodes (Stratum I, grade 3): 1(1)
- Nausea, patients (Stratum I, grade 3): 1(1)
- Neutrophil count decreased, episodes (Stratum I, grade 3): 27
- Neutrophil count decreased, patients (Stratum I, grade 3): 9
- Vomiting, episodes (Stratum I, grade 3): 1(1)
- Vomiting, patients (Stratum I, grade 3): 1(1)
- White blood cell decreased, episodes (Stratum I, grade 3): 19
- White blood cell decreased, patients (Stratum I, grade 3): 3
- Neutrophil count decreased, episodes (Stratum I, grade 4): 3(3)
- Neutrophil count decreased, patients (Stratum I, grade 4): 3(3)
- Alanine aminotransferase increased, episodes (Stratum I, overall): 4(4)
- Alanine aminotransferase increased, patients (Stratum I, overall): 4(4)
- Anemia, episodes (Stratum I, overall): 9
- Anemia, patients (Stratum I, overall): 7
- Ataxia, episodes (Stratum I, overall): 5(5)
- Ataxia, patients (Stratum I, overall): 5(5)
- Constipation, episodes (Stratum I, overall): 8
- Constipation, patients (Stratum I, overall): 6
- Diarrhea, episodes (Stratum I, overall): 4
- Diarrhea, patients (Stratum I, overall): 3
- Dry skin, episodes (Stratum I, overall): 3(3)
- Dry skin, patients (Stratum I, overall): 3(3)
- Fatigue, episodes (Stratum I, overall): 10
- Fatigue, patients (Stratum I, overall): 9
- Gait disturbance, episodes (Stratum I, overall): 3(3)
- Gait disturbance, patients (Stratum I, overall): 3(3)
- Headache, episodes (Stratum I, overall): 7
- Headache, patients (Stratum I, overall): 4
- Hypokalemia, episodes (Stratum I, overall): 6
- Hypokalemia, patients (Stratum I, overall): 5
- Lymphocyte count decreased, episodes (Stratum I, overall): 51
- Lymphocyte count decreased, patients (Stratum I, overall): 13
- Mucositis oral, episodes (Stratum I, overall): 10
- Mucositis oral, patients (Stratum I, overall): 3
- Muscle weakness left-sided, episodes (Stratum I, overall): 3(3)
- Muscle weakness left-sided, patients (Stratum I, overall): 3(3)
- Nausea, episodes (Stratum I, overall): 6
- Nausea, patients (Stratum I, overall): 3
- Neutrophil count decreased, episodes (Stratum I, overall): 64
- Neutrophil count decreased, patients (Stratum I, overall): 15
- Platelet count decreased, episodes (Stratum I, overall): 28
- Platelet count decreased, patients (Stratum I, overall): 10
- Vomiting, episodes (Stratum I, overall): 7
- Vomiting, patients (Stratum I, overall): 5
- White blood cell decreased, episodes (Stratum I, overall): 70
- White blood cell decreased, patients (Stratum I, overall): 17
- Alanine aminotransferase increased, episodes (Stratum II, grade 1): 3
- Alanine aminotransferase increased, patients (Stratum II, grade 1): 2
- Anemia, episodes (Stratum II, grade 1): 17
- Anemia, patients (Stratum II, grade 1): 9
- Anorexia, episodes (Stratum II, grade 1): 3(3)
- Anorexia, patients (Stratum II, grade 1): 3(3)
- Aspartate aminotransferase increased, episodes (Stratum II, grade 1): 2(2)
- Aspartate aminotransferase increased, patients (Stratum II, grade 1): 2(2)
- Constipation, episodes (Stratum II, grade 1): 1(1)
- Constipation, patients (Stratum II, grade 1): 1(1)
- Dizziness, episodes (Stratum II, grade 1): 3
- Dizziness, patients (Stratum II, grade 1): 2
- Electrocardiogram qt corrected interval prolonged, episodes (Stratum II, grade 1): 3
- Electrocardiogram qt corrected interval prolonged, patients (Stratum II, grade 1): 2
- Fatigue, episodes (Stratum II, grade 1): 2(2)
- Fatigue, patients (Stratum II, grade 1): 2(2)
- Headache, episodes (Stratum II, grade 1): 1(1)
- Headache, patients (Stratum II, grade 1): 1(1)
- Hypercalcemia, episodes (Stratum II, grade 1): 2(2)
- Hypercalcemia, patients (Stratum II, grade 1): 2(2)
- Hyperkalemia, episodes (Stratum II, grade 1): 2(2)
- Hyperkalemia, patients (Stratum II, grade 1): 2(2)
- Hypokalemia, episodes (Stratum II, grade 1): 3(3)
- Hypokalemia, patients (Stratum II, grade 1): 3(3)
- Lymphocyte count decreased, episodes (Stratum II, grade 1): 10
- Lymphocyte count decreased, patients (Stratum II, grade 1): 5
- Mucositis oral, episodes (Stratum II, grade 1): 1(1)
- Mucositis oral, patients (Stratum II, grade 1): 1(1)
- Neutrophil count decreased, episodes (Stratum II, grade 1): 6
- Neutrophil count decreased, patients (Stratum II, grade 1): 4
- Pain, episodes (Stratum II, grade 1): 1(1)
- Pain, patients (Stratum II, grade 1): 1(1)
- Platelet count decreased, episodes (Stratum II, grade 1): 16
- Platelet count decreased, patients (Stratum II, grade 1): 8
- Vomiting, episodes (Stratum II, grade 1): 5
- Vomiting, patients (Stratum II, grade 1): 3
- White blood cell decreased, episodes (Stratum II, grade 1): 13
- White blood cell decreased, patients (Stratum II, grade 1): 5
- Anemia, episodes (Stratum II, grade 2): 3(3)
- Anemia, patients (Stratum II, grade 2): 3(3)
- Constipation, episodes (Stratum II, grade 2): 2
- Constipation, patients (Stratum II, grade 2): 1
- Dizziness, episodes (Stratum II, grade 2): 1(1)
- Dizziness, patients (Stratum II, grade 2): 1(1)
- Fatigue, episodes (Stratum II, grade 2): 2(2)
- Fatigue, patients (Stratum II, grade 2): 2(2)
- Headache, episodes (Stratum II, grade 2): 1(1)
- Headache, patients (Stratum II, grade 2): 1(1)
- Lymphocyte count decreased, episodes (Stratum II, grade 2): 6
- Lymphocyte count decreased, patients (Stratum II, grade 2): 3
- Mucositis oral, episodes (Stratum II, grade 2): 1(1)
- Mucositis oral, patients (Stratum II, grade 2): 1(1)
- Neutrophil count decreased, episodes (Stratum II, grade 2): 19
- Neutrophil count decreased, patients (Stratum II, grade 2): 10
- Platelet count decreased, episodes (Stratum II, grade 2): 5
- Platelet count decreased, patients (Stratum II, grade 2): 3
- White blood cell decreased, episodes (Stratum II, grade 2): 18
- White blood cell decreased, patients (Stratum II, grade 2): 9
- Headache, episodes (Stratum II, grade 3): 2(2)
- Headache, patients (Stratum II, grade 3): 2(2)
- Lymphocyte count decreased, episodes (Stratum II, grade 3): 3(3)
- Lymphocyte count decreased, patients (Stratum II, grade 3): 3(3)
- Neutrophil count decreased, episodes (Stratum II, grade 3): 13
- Neutrophil count decreased, patients (Stratum II, grade 3): 9
- Pain, episodes (Stratum II, grade 3): 1(1)
- Pain, patients (Stratum II, grade 3): 1(1)
- Platelet count decreased, episodes (Stratum II, grade 3): 2(2)
- Platelet count decreased, patients (Stratum II, grade 3): 2(2)
- Seizure, episodes (Stratum II, grade 3): 3(3)
- Seizure, patients (Stratum II, grade 3): 3(3)
- Vomiting, episodes (Stratum II, grade 3): 1(1)
- Vomiting, patients (Stratum II, grade 3): 1(1)
- White blood cell decreased, episodes (Stratum II, grade 3): 7
- White blood cell decreased, patients (Stratum II, grade 3): 6
- Neutrophil count decreased, episodes (Stratum II, grade 4): 1(1)
- Neutrophil count decreased, patients (Stratum II, grade 4): 1(1)
- Platelet count decreased, episodes (Stratum II, grade 4): 1(1)
- Platelet count decreased, patients (Stratum II, grade 4): 1(1)
- Alanine aminotransferase increased, episodes (Stratum II, overall): 3
- Alanine aminotransferase increased, patients (Stratum II, overall): 2
- Anemia, episodes (Stratum II, overall): 20
- Anemia, patients (Stratum II, overall): 10
- Anorexia, episodes (Stratum II, overall): 3(3)
- Anorexia, patients (Stratum II, overall): 3(3)
- Aspartate aminotransferase increased, episodes (Stratum II, overall): 2(2)
- Aspartate aminotransferase increased, patients (Stratum II, overall): 2(2)
- Constipation, episodes (Stratum II, overall): 3
- Constipation, patients (Stratum II, overall): 2
- Dizziness, episodes (Stratum II, overall): 4
- Dizziness, patients (Stratum II, overall): 3
- Electrocardiogram qt corrected interval prolonged, episodes (Stratum II, overall): 3
- Electrocardiogram qt corrected interval prolonged, patients (Stratum II, overall): 2
- Fatigue, episodes (Stratum II, overall): 4(4)
- Fatigue, patients (Stratum II, overall): 4(4)
- Headache, episodes (Stratum II, overall): 4(4)
- Headache, patients (Stratum II, overall): 4(4)
- Hypercalcemia, episodes (Stratum II, overall): 2(2)
- Hypercalcemia, patients (Stratum II, overall): 2(2)
- Hyperkalemia, episodes (Stratum II, overall): 2(2)
- Hyperkalemia, patients (Stratum II, overall): 2(2)
- Hypokalemia, episodes (Stratum II, overall): 3(3)
- Hypokalemia, patients (Stratum II, overall): 3(3)
- Lymphocyte count decreased, episodes (Stratum II, overall): 19
- Lymphocyte count decreased, patients (Stratum II, overall): 7
- Mucositis oral, episodes (Stratum II, overall): 2(2)
- Mucositis oral, patients (Stratum II, overall): 2(2)
- Neutrophil count decreased, episodes (Stratum II, overall): 39
- Neutrophil count decreased, patients (Stratum II, overall): 11
- Pain, episodes (Stratum II, overall): 2(2)
- Pain, patients (Stratum II, overall): 2(2)
- Platelet count decreased, episodes (Stratum II, overall): 24
- Platelet count decreased, patients (Stratum II, overall): 8
- Seizure, episodes (Stratum II, overall): 3(3)
- Seizure, patients (Stratum II, overall): 3(3)
- Vomiting, episodes (Stratum II, overall): 6
- Vomiting, patients (Stratum II, overall): 4
- White blood cell decreased, episodes (Stratum II, overall): 38
- White blood cell decreased, patients (Stratum II, overall): 11
